Where two headings read alike, the source gives them in different places.
What was measured:
[1] = biological target: MST1 (Homo sapiens, UniProt Q13043); assay: MST1 protein kinase inhibition (Table 5); assay type: biochemical
[2] = biological target: T1, MST2 (Homo sapiens, UniProt Q13188); assay: MST2 protein kinase inhibition (Table 5); assay type: biochemical
T1 sequence (Q13188 1-491): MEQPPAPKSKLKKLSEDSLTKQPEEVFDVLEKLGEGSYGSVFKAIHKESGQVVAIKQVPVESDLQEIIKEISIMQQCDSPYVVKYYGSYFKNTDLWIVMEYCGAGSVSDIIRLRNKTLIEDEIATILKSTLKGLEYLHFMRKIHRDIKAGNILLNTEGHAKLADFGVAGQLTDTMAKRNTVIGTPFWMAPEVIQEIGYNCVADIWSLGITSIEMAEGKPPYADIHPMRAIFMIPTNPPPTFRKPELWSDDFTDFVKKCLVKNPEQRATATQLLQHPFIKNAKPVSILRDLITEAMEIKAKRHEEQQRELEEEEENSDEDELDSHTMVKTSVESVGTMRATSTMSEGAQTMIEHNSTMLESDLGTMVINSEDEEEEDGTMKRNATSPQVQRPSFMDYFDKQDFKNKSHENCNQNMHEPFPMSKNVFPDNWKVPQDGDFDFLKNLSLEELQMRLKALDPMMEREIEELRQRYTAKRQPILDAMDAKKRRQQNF

[3] = test system: C57B1/6 mice, MCAO-induced cerebral ischemia; assay: Mouse cerebral ischemia model by transient middle cerebral artery occlusion (MCAO); assay type: in vivo
Experimental: To verify the protective effect of the inhibitors of MST1/2 protein kinases on the brain injury after ischemic stroke, X1 was administered to mouse cerebral ischemia model induced by transient middle cerebral artery occlusion (MCAO). Briefly, 8-12 week-old C57B1/6 mice (both male and female mice) were intraperitoneal injection with vehicle (DMSO) or 2 mg/kg X1 twice at 24 hours and 3 hours prior to MCAO procedure respectively. Mice were then anesthetized with 2.0% isoflurane, with their body temperature maintained at 37° C. with a heating pad. Following a midline cervical skin incision, the proximal right common carotid artery and the right external carotid artery were ligated. […]
Real-time cerebral blood flow was monitored using a laser speckle contrast imager (PeriCam PSI HR System, Perimed, Sweden) to confirm occlusion of the MCAO and reperfusion after removal of the filament. […] Brain sections were stained with 2% 2,3,5-Triphenyltetrazolium chloride (T8877; Sigma-Aldrich, St. Louis, Mo.) and scanned (HP Scanjet G4010) to allow quantification of infarcted and uninjured brain tissue. […]
In addition, neurological function of the MCAO-induced cerebral ischemia model mice was evaluated after treatment with the MST1/2 protein kinases inhibitor X1. […]

[4] = test system: inflammatory cytokines in HUVEC, such as MCP-1 and IL-6; assay: mRNA levels of inflammatory cytokines in HUVEC after TNFα stimulation (qPCR); assay type: cell-based, human; conditions: in response to TNFα stimulation, FIGS. 17A-17D, 18A-18D
[5] = test system: THP-1 cells / TNFα-activated ECs; assay: Adhesion of THP-1 cells to TNFα-activated endothelial cells; assay type: cell-based, human; conditions: FIGS. 19A-19B, 20A-20B
Experimental: To substantiate the functional significance of inhibitors of MST1/2 protein kinases in activating endothelial cells, the monocyte adhesion to the activated endothelial cells was further examined.
Cell adhesion was assessed as the follows: THP1 cells were labeled with calcein-AM (Invitrogen) according to the instructions of the manufacturer. After the HUVECs were stimulated and washed, 2.5×10^5 calcein-labeled THP1 cells were added to each well and allowed to interact with MST1/2 inhibitors for 60 minutes at […]. Unbound cells were removed by gently washing with complete medium, and the number of attached cells was counted on an inverted fluorescent microscope.

[6] = test system: VCAM-1; assay: VCAM-1 expression in stimulated HUVECs (western blot); assay type: cell-based, human; conditions: for IC50: Homo sapiens, HUVEC, read-out: IC50 of inhibition of VCAM-1 expression
[7] = test system: mice treated with DOX; assay: In vivo cardio protection: heart function and atrophy induced by DOX in mice; conditions: by week four, inhibitors daily i.p., FIG. 11
Experimental: In vivo cardio protection in mice by the inhibitors of MST1/2 protein kinases was verified by measuring heart function and atrophy induced by DOX (FIG. 8). Two inhibitors X1 (drug 1) and Y1 (drug 2) were administered to the mice daily by i.p. during the entire study period. After administration of the inhibitors for six days, DOX was administered every two days by i.p. for four times. Blood samples were collected periodically from the mice by […]. EdU was administered to the mice during the final four days of the study (FIG. 8).
Further, the mice were disected at the death or at the end of the study and the weight of the hearts was measured.
The heart function measured as EF % (ejection fraction) was impaired by DOX over the four-week study period.

[8] = test system: inflammatory cytokines in the mouse lung; assay: Murine septic model (LPS): inflammatory cytokine mRNA in mouse lung (real-time PCR); assay type: in vivo, mice; conditions: LPS 2.5 mg/kg i.p.; pretreated twice at 24 hrs and 3 hrs prior; 6 hrs after LPS; FIGS. 21A-21D
Experimental: In this regard, the mice were pretreated with X1 twice at 24 hrs and 3 hrs, respectively, prior to the injection of lipopolysaccharides (LPS). 6 hrs after injection of LPS to induce the sepsis model, the expression of inflammatory cytokines in the mouse lung was determined by real-time PCR.

[9] = test system: ICAM-1; assay: ICAM-1 expression in stimulated HUVECs (western blot); assay type: cell-based, human; conditions: 1 μM, 1 hour pretreatment, TNF-α (20 ng/mL) and IL-1β (10 ng/mL) 12 hours; FIG. 15A

Chain of MST1 (Q13043 whole entry, looked up): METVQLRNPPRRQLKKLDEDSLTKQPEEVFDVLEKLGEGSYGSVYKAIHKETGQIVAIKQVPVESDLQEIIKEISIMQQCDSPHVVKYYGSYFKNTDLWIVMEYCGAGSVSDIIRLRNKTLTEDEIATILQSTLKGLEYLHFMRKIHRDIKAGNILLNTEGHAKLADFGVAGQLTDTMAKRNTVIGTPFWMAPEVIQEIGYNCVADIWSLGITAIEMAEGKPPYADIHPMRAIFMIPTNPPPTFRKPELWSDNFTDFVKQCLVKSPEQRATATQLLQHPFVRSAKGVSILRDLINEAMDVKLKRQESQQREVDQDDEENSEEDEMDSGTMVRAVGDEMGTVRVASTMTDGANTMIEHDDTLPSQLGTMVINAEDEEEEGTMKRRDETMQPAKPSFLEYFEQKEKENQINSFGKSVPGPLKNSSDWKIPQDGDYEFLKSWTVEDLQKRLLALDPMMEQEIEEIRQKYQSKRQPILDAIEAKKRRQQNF

## CN1c2ccccc2C(=O)Nc2cnc(Nc3ccc(NS(C)(=O)=O)cc3)nc21 [IA-6]
[1]
  IC50: > 30 µM
[2]
  IC50: > 30 µM

## NS(=O)(=O)c1ccc(Nc2ncc3c(n2)N(C2CCCC2)c2ccccc2C(=O)N3)cc1 [IB-1]
[1]
  IC50: > 30 µM
[2]
  IC50: > 30 µM

## CN1C(=O)c2ccccc2N(C)c2nc(Nc3cccc(S(N)(=O)=O)c3)ncc21 [IC-4]
[1]
  IC50: > 30 µM
[2]
  IC50: > 30 µM

## CCN1CCN(Cc2ccc(Nc3ncc4c(n3)N(C)c3ccccc3C(=O)N4C)cc2C(F)(F)F)CC1 [IC-5]
[1]; read-out: MST1 IC50
  IC50: 1.91 µM
[2]
  IC50: 1.8 µM

## CCN1c2ccccc2C(=O)N(C)c2cnc(Nc3ccc(S(N)(=O)=O)cc3)nc21 [ID-1]
[1]; read-out: MST1 IC50
  IC50: 0.04 µM
[2]
  IC50: 0.11 µM

## CCN1c2ccccc2C(=O)N(C)c2cnc(Nc3cccc(S(N)(=O)=O)c3)nc21 [ID-3]
[2]
  IC50: > 30 µM

## CC(C)N1c2ccccc2C(=O)N(C)c2cnc(Nc3ccc(S(N)(=O)=O)cc3)nc21 [IE-1]
[1]; read-out: MST1 IC50
  IC50: 0.83 µM
[2]
  IC50: 2.45 µM

## CC(C)N1c2ccccc2C(=O)N(C)c2cnc(Nc3cccc(S(N)(=O)=O)c3)nc21 [IE-2]
[2]
  IC50: > 30 µM

## CN1CCN(S(=O)(=O)c2ccc(Nc3ncc4c(n3)N(C3CCCC3)c3ccccc3C(=O)N4C)cc2)CC1 [IF-4]
[2]
  IC50: > 30 µM

## CN1C(=O)c2ccccc2N(C2CCCC2)c2nc(Nc3cccc(S(N)(=O)=O)c3)ncc21 [IF-5]
[1]
  IC50: > 30 µM
[2]
  IC50: > 30 µM

## CCN1CCN(Cc2ccc(Nc3ncc4c(n3)N(C3CCCC3)c3ccccc3C(=O)N4C)cc2C(F)(F)F)CC1 [IF-6]
[2]
  IC50: > 30 µM

## CN1C(=O)c2ccccc2Nc2nc(Nc3cccc(S(N)(=O)=O)c3)ncc21 [IG-3]
[1]
  IC50: > 30 µM
[2]
  IC50: > 30 µM

## Cc1ccc2c(c1)C(=O)N(C)c1cnc(Nc3ccc(S(C)(=O)=O)cc3)nc1N2C [IH-3]
[1]
  IC50: > 30 µM
[2]
  IC50: > 30 µM

## Cc1ccc2c(c1)C(=O)N(C)c1cnc(Nc3ccc(S(N)(=O)=O)cc3)nc1N2C [IH-6]
[1]
  IC50: > 30 µM
[2]
  IC50: > 30 µM

## [2H]c1ccc2c(c1)N(C)c1nc(Nc3ccc(S(N)(=O)=O)cc3)ncc1N(C)C2=O [IH-7]
[1]
  IC50: 3.12 µM

## CN1C(=O)c2cc(Cl)ccc2N(C)c2nc(Nc3ccc(S(N)(=O)=O)cc3)ncc21 [IH-10]
[2]
  IC50: > 30 µM

## CN1C(=O)c2ccc(Cl)cc2N(C)c2nc(Nc3ccc(S(C)(=O)=O)cc3)ncc21 [IH-14]
[1]
  IC50: > 30 µM

## CN1C(=O)c2sccc2N(C)c2nc(Nc3cccc(S(N)(=O)=O)c3)ncc21 [II-2]
[2]
  IC50: > 30 µM

## CN1C(=O)c2sccc2N(C)c2nc(Nc3ccc([N+](=O)[O-])cc3)ncc21 [II-11]
[1]
  IC50: > 30 µM
[2]
  IC50: > 30 µM

## CN1C(=O)c2sccc2N(C)c2nc(Nc3ccc(N)cc3)ncc21 [II-14]
[1]; read-out: MST1 IC50
  IC50: 2.16 µM
[2]
  IC50: 2.75 µM

## COc1cc(N2CCN(C)CC2)ccc1Nc1ncc2c(n1)N(C)c1ccsc1C(=O)N2C [II-16]
[1]
  IC50: > 30 µM
[2]
  IC50: > 30 µM

## COc1cc(N2CCC(O)CC2)ccc1Nc1ncc2c(n1)N(C)c1ccsc1C(=O)N2C [II-22]
[1]
  IC50: > 30 µM
[2]
  IC50: > 30 µM

## CN1C(=O)c2sccc2N(C)c2nc(Nc3cc[nH]n3)ncc21 [II-27]
[2]
  IC50: > 30 µM

## CN1C(=O)c2cccc3c2N(CC3)c2nc(Nc3cccc(S(N)(=O)=O)c3)ncc21 [IV-2]
[1]
  IC50: > 30 µM
[2]
  IC50: > 30 µM

## CN1C(=O)c2sccc2N(C)c2nc(Nc3ccc(S(N)(=O)=O)cc3)ncc21 [X1]
[3]; 2 mg/kg i.p. twice, 24 hours and 3 hours prior to MCAO, 60 minutes ischemia, 23 hours reperfusion, FIGS. 13, 14A
  infarct size: significantly attenuated
[3]; MCAO mice, in comparison with vehicle treatment, FIG. 14B
  neurological function (0-4-point neurological score): reducing the damages to neurological functions
[4]
  mRNA levels of inflammatory cytokines in HUVEC, such as MCP-1 and IL-6: markedly inhibited
[5]
  adhesion of THP-1 cells to TNFα-activated ECs: markedly inhibited
[6]; 1 μM, 1 hour pretreatment, TNF-α (20 ng/mL) and IL-1β (10 ng/mL) 12 hours, FIG. 15A
  VCAM-1 expression: substantially inhibited
[6]
  IC50: 1.29 µM
[7]
  heart function measured as EF % (ejection fraction): reduced the EF % decrease
[8]
  mRNA level of ICAM-1 in mouse lung: markedly suppressed
  mRNA level of IL-6 in mouse lung: markedly suppressed
  mRNA level of MCP-1 in mouse lung: markedly suppressed
  mRNA level of VCAM-1 in mouse lung: markedly suppressed
[9]
  expression of ICAM-1: barely affected

## CN1C(=O)c2ccccc2N(C)c2nc(Nc3ccc(S(N)(=O)=O)cc3)ncc21 [Y1]
[4]
  mRNA levels of inflammatory cytokines in HUVEC, such as MCP-1 and IL-6: markedly inhibited
[5]
  adhesion of THP-1 cells to TNFα-activated ECs: markedly inhibited
[6]; HUVECs, FIGS. 15B, 16A-16B
  IC50: 0.49 µM
[7]
  heart function measured as EF % (ejection fraction): reduced the EF % decrease

Source: US20220280530A1, “PREVENTION OR TREATMENT OF DISEASES AND DISORDERS ASSOCIATED WITH TISSUE DAMAGE” (priority 2019, published 2022)
